Read-outs that look alike come from different tables or passages of the source. Marks after values point to notes of the source that are not given here.
Tests used:
[1] = cited from earlier work
[2] = cited from earlier work; remark: listed apart in the source
[3] = Complex formation equilibria with Cu(II) (potentiometric–spectrophotometric and in-batch acidic UV titrations); assay type: physicochemical; conditions: literature chelators, no reference given for the value; [L] = 10 μM, [M] = 1 μM, pH = 7.4
Description: Protonation constants and metal stability constants were determined through a multitechnique approach. Combined potentiometric–spectrophotometric titrations were carried out using a Metrohm Titrando 809 equipped with a Ross combined electrode and a Metrohm Dosino 800. The glass cell containing the solutions to be titrated was maintained at a constant temperature, 25 °C, and connected with an inlet–outlet tube for nitrogen gas (purified through a 10% NaOH solution) to exclude CO2 prior to and during the titration. Daily electrode calibrations were carried out at proton ion concentration, and the results were analyzed with the Gran[41] procedure to obtain the standard potential (E°) and the ionic product of water pKw at T = 25 °C and I = 0.16 M NaCl. […] The exact amount of acid present was determined by the titration of equimolar solutions of either Cu(II) or Ga(III) and Na2H2EDTA using Gran plotting.[41]
Complex formation equilibria of either Ga(III) or Cu(II) with H2L^1 were studied using two different methods. […] The pH in the most acidic samples was calculated from the H^+ concentration when the pH was below the electrode threshold. From very acidic pH, both Cu(II) and Ga(III) complexes formed, and the first protonated complex species ([Cu(H3L^1)]^3+ and [Ga(H2L^1)]^3+) were determined through the fitting of these experiments with the HypSpec2014 program[42] […]

[4] = cited from earlier work; for pGa: [L] = 10 μM, [M] = 1 μM, pH = 7.4
[5] = Protonation constants by combined potentiometric–spectrophotometric, in-batch acidic UV and 1H NMR titrations; assay type: physicochemical; conditions: 25 °C, I = 0.16 M NaCl
Description: (§1) Protonation constants and metal stability constants were determined through a multitechnique approach. Combined potentiometric–spectrophotometric titrations were carried out using a Metrohm Titrando 809 equipped with a Ross combined electrode and a Metrohm Dosino 800. The glass cell containing the solutions to be titrated was maintained at a constant temperature, 25 °C, and connected with an inlet–outlet tube for nitrogen gas (purified through a 10% NaOH solution) to exclude CO2 prior to and during the titration. Daily electrode calibrations were carried out at proton ion concentration, and the results were analyzed with the Gran[41] procedure to obtain the standard potential (E°) and the ionic product of water pKw at T = 25 °C and I = 0.16 M NaCl. The calibrations involved HCl standard being titrated with carbonate-free titrant NaOH(aq) (0.15 M), and the ionic strength was maintained constant to 0.16 M by the addition of a NaCl solution. The NaOH was previously standardized against freshly dried potassium hydrogen phthalate crystals. Copper and gallium metal-ion solutions used in metal complexation experiments were prepared by the dilution of AA standards. The exact amount of acid present was determined by the titration of equimolar solutions of either Cu(II) or Ga(III) and Na2H2EDTA using Gran plotting.[41]
Protonation equilibria of either H2L^1 or H2L^2 were studied by titrations of solutions containing [H2L^1] = 9.56 × 10^–4 M or [H2L^2] = 5.87 × 10^–4 M at 25 °C and 0.16 M NaCl ionic strength using a potentiometric–spectrophotometric procedure. In each titration (100–150 equilibrium points and pH range 2–11), the electromotive force values were recorded after 2 min of each NaOH addition and the spectrophotometer was synchronized to obtain a UV spectrum for each pH data point. Spectra were recorded in the 200–400 nm wavelength range with a 0.2-cm-path-length optic dip probe connected to a Varian Cary 60 UV–vis spectrophotometer. The obtained spectrophotometric and potentiometric data were analyzed with HypSpec2014([42]) and HyperQuad2013([43]) to obtain the protonation constants and molar absorptivities of the different absorbing species of the ligands (Table 3 and Figures S42–S49 and S51B). […] Additional ^1H NMR titrations were carried out for H2L^1 to better understand the protonation sequence and their assignments (Figures S45 and S46). A set of H2L^1 solutions (4 × 10^–3 M) in D2O were prepared by the addition of DCl or NaOD, and their ^1H NMR spectra were recorded. The pH values of the samples were then measured with a microelectrode (Mettler Toledo), which was calibrated daily at H^+ concentration as described above. The pH was corrected for the deuterium isotopic effect (pD = pHreading + 0.4).[44]

[6] = Complex formation equilibria with Ga(III) (potentiometric–spectrophotometric and in-batch acidic UV titrations); assay type: physicochemical; conditions: for pGa, corrected value: from corrected log KML, [L] = 10 μM, [M] = 1 μM, pH = 7.4; for log KML (M = Ga^3+), corrected value: refit of potentiometric curve in competition with [Ga(OH)4]−, I = 0.15 M NaCl, 25 °C (Supporting Information)
Description: as §1, with “Daily electrode calibrations were carried out at proton ion concentration, and the results were analyzed with the Gran[41] procedure to obtain the standard potential (E°) and the ionic product of water pKw at T = 25 °C and I = 0.16 M NaCl.” left out
Complex formation equilibria of either Ga(III) or Cu(II) with H2L^1 were studied using two different methods. […] The pH in the most acidic samples was calculated from the H^+ concentration when the pH was below the electrode threshold. From very acidic pH, both Cu(II) and Ga(III) complexes formed, and the first protonated complex species ([Cu(H3L^1)]^3+ and [Ga(H2L^1)]^3+) were determined through the fitting of these experiments with the HypSpec2014 program[42] (Figures S50–S52 and S56–S58 and Table S3). […] Dissociation constants corresponding to the hydrolysis of Ga(III) and Cu(II) aqueous ions included in the calculations were taken from Baes and Mesmer.[46] Complexation of H2L^1 with Ga(III) was further corroborated by the findings of ^1H NMR experiments at different pD values (Figures 3 and S26). Similarly, complexation of H2L^2 with Cu(II) or Ga(III) was studied by in-batch acidic UV experiments in a set of solutions prepared with the experimental conditions [H2L^2] = [Ga^3+] = 1 × 10^–4 M; [H2L^2] = [Cu^2+] = 7 × 10^–4 M, and the pH was adjusted by the addition of different amounts of standardized HCl. The ionic strength was maintained constant at 0.16 M when possible by the addition of NaCl. The first-formed complex species ([Cu(HL^2)]^+, [CuL^2], and [GaL^2]^+) were determined through fitting of the experimental data (Figures S53–S55 and S59–S61 and Table S3). […]

[7] = Table S4 footnote e, ref 7 (SI)
[8] = Table S4 footnote c, ref 5 (SI)
[9] = Table S4 footnote d, ref 6 (SI)
[10] = Table S4 footnote f, ref 8 (SI)

Q: Which results are given for `O=C(O)CN1CCN(CC(=O)O)CCN(CC(=O)O)CC1` [NOTA, 1,4,7-triazacyclononane-1,4,7-triacetic acid]?
A: log KML (M = Cu^2+) [1]: 21.6 ^d; log KHqL, H2L + H+ ⇆ H3L [2, 7]: 3.163(3); log KHqL, H3L + H+ ⇆ H4L [2, 7]: 1.955(3); log KHqL, HL + H+ ⇆ H2L [2, 7]: 6.032(4); log KHqL, L + H+ ⇆ HL [2, 7]: 10.773(7); ∑log KHqL [2, 7]: 21.923; pCu [3]: 19.2; pGa [4]: 27.9 ^g; log KML (M = Ga^3+) [4]: 30.98 ^g

Q: Which results are given for “N,N′-Bis(3-aminopropyl)-N,N′-bis(6-carboxypyridin-2-yl)-1,2-diaminoethane [H2L^1]”?
A: log KHqL, H2L + H+ ⇆ H3L (log K3) [5]: 6.78; log KHqL, H3L + H+ ⇆ H4L (log K4) [5]: 4.23; log KHqL, H4L + H+ ⇆ H5L (log K5) [5]: 2.79; log KHqL, H5L + H+ ⇆ H6L (log K6) [5]: 2.01; log KHqL, HL + H+ ⇆ H2L (log K2) [5]: 9.91; log KHqL, L + H+ ⇆ HL (log K1) [5]: 10.86

Q: Which results are given for `O=C(O)c1cccc(CNCCNCc2cccc(C(=O)O)n2)n1` [H2dedpa, 1,2-bis[[(6-carboxypyridin-2-yl)methyl]amino]ethane]?
A: log KML (M = Cu^2+) [1]: 19.16(5) ^d; pCu ([1]; −log [Mfree] at [L] = 10 μM, [M] = 1 μM, pH = 7.4): 18.5 ^d; log KHqL, H2L + H+ ⇆ H3L [2, 8]: 3.04; log KHqL, H3L + H+ ⇆ H4L [2, 8]: 2.59; log KHqL, HL + H+ ⇆ H2L [2, 8]: 6.31; log KHqL, L + H+ ⇆ HL [2, 8]: 9.00; log KHqL, H2L + H+ ⇆ H3L [2, 9]: 3.08 (2); log KHqL, H3L + H+ ⇆ H4L [2, 9]: 2.33 (3); log KHqL, HL + H+ ⇆ H2L [2, 9]: 6.18 (2); log KHqL, L + H+ ⇆ HL [2, 9]: 8.69 (1); pGa, corrected value [6]: 22.2 ^e; log KML (M = Ga^3+), corrected value [6]: 22.9(1) ^e

Q: Which pGa [4] does the source give for `O=C([O-])CN1CCN(CC(=O)[O-])CCN(CC(=O)[O-])CCN(CC(=O)[O-])CC1.[Ga+3]` [Ga^III-DOTA] here?
A: Its pGa is 18.5.

Q: What about the “log KML (M = Ga^3+)” value [4] of the same molecule?
A: The value was 21.33.

Q: What does the source list for `O=C(O)CN1CCN(CC(=O)O)CCN(CC(=O)O)CCN(CC(=O)O)CC1` [DOTA, 1,4,7,10-tetraazacyclododecane-1,4,7,10-tetraacetic acid]?
A: log KML (M = Cu^2+) [1]: 22.21(1) ^f; log KHqL, H2L + H+ ⇆ H3L [2, 10]: 4.548 (3); log KHqL, H3L + H+ ⇆ H4L [2, 10]: 4.130 (3); log KHqL, HL + H+ ⇆ H2L [2, 10]: 9.680 (1); log KHqL, L + H+ ⇆ HL [2, 10]: 12.09 (4); ∑log KHqL [2, 10]: 30.448; pCu [3]: 16.2; log KML (M = Ga^3+) [4]: 21.33 ^g

Q: Which “log KML (M = Ga^3+)” value [4] does the source give for `O=C([O-])c1cccc(CNCCNCc2cccc(C(=O)[O-])n2)n1.[Ga+3]` [[Ga(dedpa)]^+] here?
A: The value was 28.11(8).

Q: And the “pGa, corrected value” [6]?
A: Its value is 22.2.

Q: And the “log KML (M = Ga^3+), corrected value” [6]?
A: The value was 22.9(1).

Source: PMC10731644, “Toward ^68Ga and ^64Cu Positron Emission Tomography Probes: Is H2dedpa-N,N′-pram the Missing Link for dedpa Conjugation?” (Inorganic Chemistry, 2023)
